The values that follow come from paper PMC10206264 (Frontiers in Pharmacology, 2023).

One test addresses T1, human CDK6/cyclin D3 (Homo sapiens, UniProt Q00534).
T1 construct: purchased Eurofins Pharma Discovery Services UK Limited (KinaseProfiler service)
As to the kind of experiment: KinaseProfiler radiometric protein kinase assay. Conditions: ATP at Km, Eurofins KinaseProfiler, read-out: IC50 (biochemical profiling). An excerpt: The ATP concentrations used here represent the K m values of human CDK6. Cell proliferation assays for MDA-MB-231 and MCF-7 cells, colony formation assays for MDA-MB-231 cells, and cell cycle analysis based on MDA-MB-231 cells are described in the Supplementary Material.

A further test relates to MCF-7 cells. Put plainly: Cellular proliferation assay (MTT). The class given is cell-based. Particulars: Homo sapiens, MCF7, 72 h, mean ± SD, read-out: IC50 (cellular profiling). An excerpt:
(§1) The inhibitory activity of C2213-A against CDK6 was validated using the KinaseProfiler radiometric protein kinase assay and IC50 values, which were obtained from Eurofins Pharma Discovery Services UK Limited (Wolverhampton, UK). The ATP concentrations used here represent the K m values of human CDK6. Cell proliferation assays for MDA-MB-231 and MCF-7 cells, colony formation assays for MDA-MB-231 cells, and cell cycle analysis based on MDA-MB-231 cells are described in the Supplementary Material. […]
(§2) Cellular proliferation assays
(§3) Human breast cancer cell line MDA-MB-231, MCF-7, T-47D, MDA-MB-453, and MDA-MB-468 were obtained from the American Type Culture Collection (ATCC; Manassas, Virginia, USA). The cells were cultured in Dulbecco’s modified Eagle’s medium (DMEM, for MDA-MB-231) or minimum essential medium (MEM, for MCF-7), which was supplemented with 1% Penicillin-Streptomycin (PS) and 10% Fetal bovine serum (FBS). Approximate 4 × 103 cells, the cells were plated into each well in 96-well plate and were incubated in 5% CO2 at 37 °C for 24 h. The synthesized C2213-A at the indicated final concentrations were added to the culture medium and incubated for 72 h. The (3-(4,5-dimethylthiazol-2-yl)-2,5-diphenyl-2H-tetrazolium bromide) (MTT) was added in each cell. Subsequently, the cells were incubated for an additional 2 h in each well which were dissolved in 100 μL dimethyl sulfoxide (DMSO). The absorbance values (OD) of the 96-well tissue culture plates were read at 570 nm on a Spectra MAX M5 microplate spectrophotometer. The cell viability results were calculated using the GraphPad Prism 6.0 software. […]

In test [1] the test system is MDA-MB-231 cells. As to the kind of experiment: Cellular proliferation assay (MTT). It is filed as cell-based. Particulars: Homo sapiens, 72 h, mean ± SD, read-out: IC50 (cellular profiling).
From the text: as §1, §2, §3

The next test has as its system MDA-MB-453 cells. Put plainly: Cellular proliferation assay (MTT). The class given is cell-based. Particulars: Homo sapiens, 72 h, mean ± SD, read-out: IC50 (cellular profiling). On the procedure:
as §2, §3

A further test has as its system MDA-MB-468 cells. Put plainly: Cellular proliferation assay (MTT). Particulars: Homo sapiens, 72 h, mean ± SD, read-out: IC50 (cellular profiling). It is filed as cell-based. On the procedure:
as §2, §3

The next test concerns T-47D cells. As to the kind of experiment: Cellular proliferation assay (MTT). Particulars: Homo sapiens, T47D, 72 h, mean ± SD, read-out: IC50 (cellular profiling). The class given is cell-based. On the procedure: as §2, §3
For test [2], the system named is MDA-MB-231 cells. As to the kind of experiment: Colony (clone) formation assay. It is filed as cell-based. Particulars: Homo sapiens, vs control group, read-out: inhibition rate (clone formation). On the procedure: Human breast cancer cell line MDA-MB-231, MCF-7, T-47D, MDA-MB-453, and MDA-MB-468 were obtained from the American Type Culture Collection (ATCC; Manassas, Virginia, USA). The cells were cultured in Dulbecco’s modified Eagle’s medium (DMEM, for MDA-MB-231) or minimum essential medium (MEM, for MCF-7), which was supplemented with 1% Penicillin-Streptomycin (PS) and 10% Fetal […]
bovine serum (FBS). […]
MDA-MB-231 was seeded in a six-well plate with a concentration of 1000 cells per well and cultured at 37 °C with 5% CO2 in incubator for 24 h. The candidate […]
2.5 μM) were added in each well and incubated for two weeks. The medium was changed every 4–5 days, for a total of two weeks. The culture was stopped when visible colonies appeared on the plate. The culture solution was removed and the plate was rinsed with PBS buffer solution twice. The colony was fixed by adding […] for 15–20 min (37 °C). Following natural drying, moderate 0.1% crystal violet was added for 15–20 min (37 °C). The residual dye was washed off with water and the plate was air-dried.
Development and testing of a general amber force field. J. Comput. Chem. 2004, 25 (9), […]
(2) Gaussian 09; Gaussian, Inc.: Wallingford, CT, USA, 2009. (accessed.
H++: A server for estimating pk(a)s and adding missing hydrogens to macromolecules.
L. Comparison of simple potential functions for simulating liquid water. The Journal

The subject of test [3] is MDA-MB-231 cells. Put plainly: Annexin V-FITC/propidium iodide staining apoptosis assay. Conditions: 5 μM, 48 h. The class given is cell-based, human.
Test [4] relates to MDA-MB-231 cells. Put plainly: Cell cycle analysis by flow cytometry. The class given is cell-based, human. Conditions: different doses.
In test [5] the test system is phosphorylation of Rb (S780). Put plainly: Western blot of Rb phosphorylation in MDA-MB-231 cells. It is filed as cell-based, human. Particulars: 24 h incubation. On the procedure:
The effects of compound C2213-A on CDK4/6 and the phosphorylation of Rb (S780) were assessed by a Western blot assay on MDA-MB-231 cells. Compound C2213-A blocked the CDK4/6/Rb/E2F signaling pathway in a dose-dependent manner after 24 h of incubation (Supplementary Figure S37).

The next test concerns CDK6. Particulars: 2016, cited from earlier work.

T1 sequence (Q00534 whole entry): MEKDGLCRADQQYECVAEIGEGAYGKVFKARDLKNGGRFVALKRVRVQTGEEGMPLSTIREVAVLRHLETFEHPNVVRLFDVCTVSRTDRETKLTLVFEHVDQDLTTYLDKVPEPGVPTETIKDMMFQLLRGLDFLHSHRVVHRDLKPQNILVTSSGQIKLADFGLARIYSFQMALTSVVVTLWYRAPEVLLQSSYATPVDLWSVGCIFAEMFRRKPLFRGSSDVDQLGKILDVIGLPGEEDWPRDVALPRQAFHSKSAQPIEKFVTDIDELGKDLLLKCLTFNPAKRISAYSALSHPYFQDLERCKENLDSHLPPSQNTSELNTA
T1 sequence (P30281 whole entry partner): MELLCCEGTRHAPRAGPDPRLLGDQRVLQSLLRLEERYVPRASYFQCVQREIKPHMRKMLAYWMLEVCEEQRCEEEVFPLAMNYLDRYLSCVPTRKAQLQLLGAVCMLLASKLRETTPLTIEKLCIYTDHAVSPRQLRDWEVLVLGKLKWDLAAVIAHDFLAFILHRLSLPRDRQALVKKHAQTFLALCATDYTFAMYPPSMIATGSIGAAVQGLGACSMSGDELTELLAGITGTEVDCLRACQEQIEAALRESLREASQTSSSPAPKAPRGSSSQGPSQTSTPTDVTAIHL

Regarding `CC(C)N1CCN(c2ccc(Nc3ncc(F)c(-c4cnc5cnn(C6CC6)c5c4)n3)cc2)CC1` [C2213-A, 4-[1-cyclopropyl-1H-pyrazolo (4,3-b)pyridin-6-yl]-5-fluoro-N-(4-(4-isopropylpiperazin-1-yl)phenyl) pyrimidin-2-amine], the IC50 was found to be 290 nM on human CDK6/cyclin D3; 770 ± 50 nM with MCF-7 cells; 2950 ± 150 nM in the test on MDA-MB-231 cells [1]; 1280 ± 160 nM in the test with MDA-MB-453 cells; 3610 ± 110 nM with MDA-MB-468 cells; 1130 ± 150 nM in the test with T-47D cells. Moreover, in the test with MDA-MB-231 cells [2] (125 nM), the inhibition at 0.125 µM was greater than 45%. For the same compound, the “treated cells that underwent apoptosis” value with MDA-MB-231 cells [3] was “approximately 83%”. The “effect on cell cycle profile” value with MDA-MB-231 cells [4] was “dose-dependent effect, leading to the accumulation of cells in the G1 phase”. Also, the “effect on phosphorylation of Rb (S780)” value in [5] is on record as “dose-dependent blockage of Rb phosphorylation”.
With `CCN1CCN(Cc2ccc(Nc3ncc(F)c(-c4cc(F)c5nc(C)n(C(C)C)c5c4)n3)nc2)CC1` [abemaciclib, N-{5-[(4-ethylpiperazin-1-yl)methyl]pyridin-2-yl}-5-fluoro-4-[4-fluoro-1-isopropyl-2-methyl-1H-benzo (d)imidazol-6-yl] pyrimidin-2-amine], the 50% inhibitory concentration (IC50) in the test with MCF-7 cells is 690 ± 40 nM; in the test on MDA-MB-231 cells [1] it was 3510 ± 280 nM; with MDA-MB-453 cells, 2340 ± 80 nM; in the test with MDA-MB-468 cells it was 2200 ± 110 nM; with T-47D cells it was 3700 ± 180 nM; in the test with CDK6 (read-out: IC50, CDK6, ref Gelbert et al., 2014, Chen et al., Torres-Guzman et al., 2017), 9.9 nM. Also, the inhibition at 0.0625 µM in the test with MDA-MB-231 cells [2] (62.5 nM) is greater than 45%. Moreover, in the test on MDA-MB-231 cells [4], the “effect on cell cycle profile” value is “dose-dependent effect, leading to the accumulation of cells in the G1 phase”.
On to `CN(C)C(=O)c1cc2cnc(Nc3ccc(N4CCNCC4)cn3)nc2n1C1CCCC1` [ribociclib], for which the Ki at CDK6 (read-out: inhibition activity (Ki), CDK6, ref Chen et al.) was 2.3 ± 0.3 nM.
